# Assay results as given in US5328899A, “NPY peptide analogs” (The Salk Institute for Biological Studies, priority 1992, dated 1994).
# Tests used:
# conscious rats = experiment: Effect on mean arterial blood pressure (MAP) and heart rate after intra-arterial injection in conscious rats; assay type: in vivo, rat
# Protocol: (§1) Saline solutions of the peptides are injected intra-arterially into conscious rats, and arterial pressure is monitored via an indwelling femoral cannula directly coupled to a pressure transducer. […] Control animals receive saline vehicle alone.
# Saline solutions of the peptides were administered intraarterially in a 100-μL bolus in an amount equal to about 0.4 mg/Kg body weight.
# intracellular Ca++ = experiment: Elevation of intracellular Ca++ concentrations; assay type: cell-based; conditions: 100 nM NPY after 100 nM NPY (18-36)
# [1] = tested on: hypertensive actions of NPY; experiment: NPY-induced increase in MAP in animals pretreated with NPY(18-36); assay type: in vivo, rat; conditions: NPY 1 μg intra-arterially, 3 animals
# Protocol: as §1
Compound,decrease in MAP at five and ten minutes after administration (conscious rats),elevation of intracellular Ca++ by NPY after addition of NPY(18-36) (intracellular Ca++),increase in MAP obtained by NPY administration ([1]; animals pretreated with NPY(18-36) 300 μg),increase in MAP obtained by NPY administration ([1]; control animals)
CC[C@H](C)[C@H](NC(=O)[C@H](Cc1ccc(O)cc1)NC(=O)[C@H](Cc1c[nH]cn1)NC(=O)[C@H](CCCNC(=N)N)NC(=O)[C@H](CC(C)C)NC(=O)[C@H](C)NC(=O)[C@H](CO)NC(=O)[C@H](Cc1ccc(O)cc1)NC(=O)[C@H](Cc1ccc(O)cc1)NC(=O)[C@H](CCCNC(=N)N)NC(=O)[C@H](C)NC(=O)[C@@H](N)CC(C)C)C(=O)N[C@@H](CC(N)=O)C(=O)N[C@@H](CC(C)C)C(=O)N[C@H](C(=O)N[C@H](C(=O)N[C@@H](CCCNC(=N)N)C(=O)N[C@@H](CCC(N)=O)C(=O)N[C@@H](CCCNC(=N)N)C(=O)N[C@@H](Cc1ccc(O)cc1)C(N)=O)[C@@H](C)O)[C@@H](C)CC [pNPY(17-36)],significantly decrease MAP,–,–,–
Neuropeptide Y [NPY],–,to the same extent as under control conditions,28±5 mmHg,32±5 mmHg
